Laboratory results reported in patent publication US7632952B2, “Benzothiazoles and the use thereof as medicaments” (Aventis Pharma S.A., priority 2004, dated 2009).
Where a name gives a salt, the structure may show the parent alone.

Legend:
CDK4/cyclin D1 = CDK4/cyclin D1 (Homo sapiens, UniProt P11802); assay: CDK4/cyclin D1 Flashplate test in 96-well format; type: biochemical
Summary of the method: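 CDK4-HA/cyclin D1-(His)6 complex from coinfected Sf9 cells, 25 nM final, phosphorylating 1.8 μM biotinylated pRb peptide in HEPES pH 7.5 with MgCl2, DTT and [γ-33P]ATP at 30 °C. 33P incorporation captured on streptavidin Flashplates and read by scintillation counting; IC50 from seven-point inhibitor dilutions.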

HeLa = HeLa proliferation; type: cell-based; details: Homo sapiens, read-out: HeLa proliferation EC50 (nM) DG

Chain of CDK4/cyclin D1 (P11802 whole entry): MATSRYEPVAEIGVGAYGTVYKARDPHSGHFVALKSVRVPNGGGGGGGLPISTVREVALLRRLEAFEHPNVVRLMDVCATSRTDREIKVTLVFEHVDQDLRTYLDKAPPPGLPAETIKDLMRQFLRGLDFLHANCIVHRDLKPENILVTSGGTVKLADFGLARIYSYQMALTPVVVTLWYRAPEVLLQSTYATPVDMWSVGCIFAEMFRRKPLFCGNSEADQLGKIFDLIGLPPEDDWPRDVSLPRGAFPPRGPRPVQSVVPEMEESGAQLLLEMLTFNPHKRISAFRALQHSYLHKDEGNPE
Chain of CDK4/cyclin D1 (P24385 whole entry partner): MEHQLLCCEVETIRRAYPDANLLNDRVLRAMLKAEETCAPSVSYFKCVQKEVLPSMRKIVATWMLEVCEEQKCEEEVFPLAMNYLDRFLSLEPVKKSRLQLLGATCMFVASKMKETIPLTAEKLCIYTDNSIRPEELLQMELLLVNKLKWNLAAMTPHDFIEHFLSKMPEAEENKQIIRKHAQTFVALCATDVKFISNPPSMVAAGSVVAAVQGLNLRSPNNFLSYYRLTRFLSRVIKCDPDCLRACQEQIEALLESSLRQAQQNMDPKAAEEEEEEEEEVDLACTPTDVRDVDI

Row | Structure (SMILES) | IC50 (CDK4/cyclin D1) | EC50 (HeLa)
1 | CC(C)N(CCNc1ccc(S(=O)(=O)Oc2ccc3nc(NC(=O)C4CCCC4)sc3c2)cc1)C(C)C [Example 45, 4-(2-Diisopropylaminoethylamino)benzenesulfonic acid 2-(cyclo-pentanecarbonylamino)benzothiazol-6-yl ester] | 341 nM | 289 nM
2 | CNc1ccc(S(=O)(=O)Oc2ccc3nc(NC(=O)C4CC4)sc3c2)cc1 [Example 10, 4-methylaminobenzenesulfonic 2-(cyclopropane-carbonylamino)benzothiazol-6-yl ester] | 944 nM | 807 nM
3 | CCC(=O)Nc1nc2ccc(OS(=O)(=O)c3ccc(NCCN(C(C)C)C(C)C)cc3)cc2s1 [Example 57, 4-(2-diisopropylaminoethylamino)benzenesulfonic acid 2-propionylaminobenzothiazol-6-yl ester hydrochloride] | 125 nM | 79 nM
4 | CC(C)(O)CNc1ccc(S(=O)(=O)Oc2ccc3nc(NC(=O)CCc4cccnc4)sc3c2)cc1 [Example 63, 4-(2-hydroxy-2-methylpropylamino)benzene-sulfonic acid 2-(3-pyrid-3-ylpropionylamino)benzothiazol-6-yl ester hydro-chloride] | 1390 nM | 8370 nM
5 | CC(C)NCCNc1ccc(S(=O)(=O)Oc2ccc3nc(NC(=O)C4CC4)sc3c2)cc1 [Example 53, 4-(2-isopropylaminoethylamino)benzenesulfonic 2-(cyclopropanecarbonylamino)benzothiazol-6-yl ester hydrochloride] | 205 nM | 16 nM
6 | CC(C)C(=O)Nc1nc2ccc(OS(=O)(=O)c3ccc(NCCN(C(C)C)C(C)C)cc3)cc2s1 [Example 55, 4-(2-diisopropylaminoethylamino)benzenesulfonic acid 2-isobutyrylaminobenzothiazol-6-yl ester hydrochloride] | 221 nM | 43 nM
7 | O=C(Nc1nc2ccc(OS(=O)(=O)c3ccc(NCCCn4ccnc4)cc3)cc2s1)C1CC1 [Example 9, 4-(3-imidazol-1-ylpropylamino)benzenesulfonic 2-(cyclopropanecarbonylamino)benzothiazol-6-yl ester] | 931 nM | 611 nM
8 | COCC(=O)Nc1nc2ccc(OS(=O)(=O)c3ccc(NCCN(C(C)C)C(C)C)cc3)cc2s1 [Example 44, 4-(2-Diisopropylaminoethylamino)benzenesulfonic acid 2-(2-methoxyacetylamino)benzothiazol-6-yl ester] | 313 nM | 76 nM
9 | CC(C)(CNc1ccc(S(=O)(=O)Oc2ccc3nc(NC(=O)C4CC4)sc3c2)cc1)OP(=O)(O)O [Example 89, 4-(2-methyl-2-phosphonooxypropylamino)benzene-sulfonic acid 2-(cyclopropanecarbonylamino)benzothiazol-6-yl ester] | 3320 nM | 2510 nM
10 | CC(C)N(CCNc1ccc(S(=O)(=O)Oc2ccc3nc(NC(=O)C4(N)CCCC4)sc3c2)cc1)C(C)C [Example 41, 4-(2-diisopropylaminoethylamino)benzenesulfonic acid 2-[(1-aminocyclopentanecarbonyl)amino]benzothiazol-6-yl ester] | > 10000 nM | 8390 nM
11 | O=C(Nc1nc2ccc(OS(=O)(=O)c3cccs3)cc2s1)C1CC1 [Example 33h, Thiophene-2-sulfonic acid 2-(cyclopro-panecarbonylamino)benzothiazol-6-yl ester] | 358 nM | 4430 nM
12 | O=C(Nc1nc2ccc(OS(=O)(=O)c3ccc(-c4ccccn4)s3)cc2s1)C1CC1 [Example 85, 5-pyridin-2-ylthiophene-2-sulfonic acid 2-(cyclopropanecarbonylamino)benzothiazol-6-yl ester] | > 10000 nM | > 12500 nM
13 | CC(C)N(CCNc1ccc(S(=O)(=O)Oc2ccc3nc(NC(=O)C4CC4)sc3c2)cc1)C(C)C [Example 12, 4-(2-diisopropylaminoethylamino)benzenesulfonic 2-(cyclopropanecarbonylamino)benzothiazol-6-yl ester] | 205 nM | 16 nM
14 | CC(C)(O)CNc1ccc(S(=O)(=O)Oc2ccc3nc(NC(=O)C4CC4)sc3c2)cc1 [Example 11, 4-(2-hydroxy-2-methylpropylamino)benzene-sulfonic 2-(cyclopropanecarbonylamino)benzothiazol-6-yl ester] | 924 nM | 80 nM
15 | CC(=O)Nc1nc2ccc(OS(=O)(=O)c3ccc(NCCN(C(C)C)C(C)C)cc3)cc2s1 [Example 43, 4-(2-Diisopropylaminoethylamino)benzenesulfonic acid 2-acetylaminobenzothiazol-6-yl ester] | 119 nM | 36 nM
16 | CC(C)N(CCNc1ccc(S(=O)(=O)Oc2ccc3nc(NC(=O)C4CCC4)sc3c2)cc1)C(C)C [Example 60, 4-(2-diisopropylaminoethylamino)benzenesulfonic acid 2-(cyclobutanecarbonylamino)benzothiazol-6-yl ester hydrochloride] | 265 nM | 199 nM
17 | CC(=O)Nc1nc2ccc(OS(=O)(=O)c3ccc(NCCNC(C)C)cc3)cc2s1 [Example 65, 4-(2-isopropylaminoethylamino)benzenesulfonic acid 2-acetylaminobenzothiazol-6-yl ester] | 170 nM | 122 nM
